Results: patent US8629251B2, “Specific detection and quantification of phosphatidic acid using an Arabidopsis trigalactosyldiacylglycerol-4 (TGD4) protein” (Board of Trustees of Michigan State University, priority 2008, dated 2014)

Key:
[1] = molecular target: T1, Arabidopsis TGD4, DsRED-TGD4-His, full-length TGD4 1-479 (SEQ ID NO: 132) (Arabidopsis thaliana, UniProt Q9M903); test: Liposome association assay, DsRED-TGD4-His; type: binding; conditions: pH range of 6.4-7.8, FIG. 18E
T1 sequence (Q9M903 1-479): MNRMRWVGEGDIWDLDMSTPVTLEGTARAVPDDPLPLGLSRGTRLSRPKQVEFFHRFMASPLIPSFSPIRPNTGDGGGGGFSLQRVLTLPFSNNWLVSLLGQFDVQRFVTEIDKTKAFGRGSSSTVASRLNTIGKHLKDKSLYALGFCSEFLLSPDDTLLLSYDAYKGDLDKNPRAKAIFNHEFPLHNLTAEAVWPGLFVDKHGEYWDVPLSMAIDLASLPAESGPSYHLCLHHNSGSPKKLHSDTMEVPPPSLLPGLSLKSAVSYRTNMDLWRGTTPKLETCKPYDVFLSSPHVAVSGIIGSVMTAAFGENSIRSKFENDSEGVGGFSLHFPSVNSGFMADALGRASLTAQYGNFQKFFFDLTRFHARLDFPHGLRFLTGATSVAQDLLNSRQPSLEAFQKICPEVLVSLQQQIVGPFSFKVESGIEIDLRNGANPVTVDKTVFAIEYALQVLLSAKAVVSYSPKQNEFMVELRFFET
Description: Liposome Association Assay:
The liposome association assay was adapted from (Awai et al., 2006, Lu and Benning, 2009) with minor modifications. Dioleoyl-PtdCho and PtdOH with different acyl chain lengths and desaturation levels were used for making liposomes. In other liposomes 1-palmitoyl-2-(12-((7-nitro-2-1,3-benzoxadiazol-4-yl)amino)dodecanoyl)-sn-glycero-3-phosphate (NBD-PtdOH; Avanti, Alabaster, Ala.) was used. The lipids were mixed at indicated ratios to give a total lipid amount of 250 μg. The lipids were dried under a stream of nitrogen, resuspended in 0.5 ml TBS buffer with 0.2 M choline chloride and hydrated at 37° C. for 1 hour followed by vigorous vortexing for 2 minutes. The resulting multi-lamellar vesicles were centrifuged at 13,000×g for 10 minutes and then washed once with TBS buffer containing 0.2 M choline chloride. The liposomes were resuspended into 100 μl TBS buffer with 0.2 M choline chloride and incubated with 2 μg purified DsRED-TGD4-His protein and its derivatives. The protein liposome mixture was incubated on ice for 30 minutes followed by centrifugation at 13,000×g for 10 minutes and two washes with 500 μl TBS containing 0.2 M choline chloride. The resulting protein-liposome pellet was resuspended in 20 μl 2× Laemmli buffer (Laemmli, 1970) and processed by SDS-PAGE (Shapiro and Maizel, 1969).

[2] = molecular target: Arabidopsis TGD2, DsRed-TGD2C D1 (Δ221-250, SEQ ID NO:43) (Arabidopsis thaliana, UniProt Q9LTR2, DEL221-250); test: Liposome-association assay, TGD2C D1 (Δ221-250); type: binding; conditions: FIG. 3C
Chain of Arabidopsis TGD2, DsRed-TGD2C D1 (Δ221-250, SEQ ID NO:43) (Q9LTR2 other isoform, or with tags, fused parts or gaps DEL221-250): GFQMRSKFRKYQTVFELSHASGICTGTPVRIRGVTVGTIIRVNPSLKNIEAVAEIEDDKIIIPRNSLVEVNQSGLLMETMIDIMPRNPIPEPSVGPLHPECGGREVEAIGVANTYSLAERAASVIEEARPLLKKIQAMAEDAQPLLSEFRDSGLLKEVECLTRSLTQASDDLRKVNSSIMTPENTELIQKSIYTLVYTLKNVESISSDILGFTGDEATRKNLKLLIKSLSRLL
Description: (§1) The liposome association assay was performed as previously reported. (31). Briefly, lipids (dioleoyl-phosphatidylcholine, DOPC or dioleoyl-PA, DOPA) were incubated in TBS (50 mM Tris-HCl, pH 7; 0.1 M NaCl) at 37° C. for an hour followed by vigorous vortexing for 5 min. The liposomes were precipitated at 20,000 g and washed twice with ice-cold TBS.
(§2) Liposomes (200 μg) were mixed with purified DsRed-TGD2 fusion protein and TBS to make a final 100 μL solution. The mixture was incubated at 30° C. for 30 min and washed twice with ice-cold TBS by centrifugation at 20,000 g at 4° C. The liposome pellet mixed with sample buffer was analyzed by SDS-PAGE (28). Immuno-detection of the His-tagged protein was accomplished using the above mentioned Penta-His antibody at 1:15,000 and the anti mouse antibody at 1:75,000 dilution.
(§3) The protein band was visualized by chemiluminescent detection kit from Sigma. The autoradiography film was scanned, distinct protein bands were quantified using computer software Multi Gauge V3.0 (Fujifilm USA, Valhalla, N.Y.) and resulted data were plotted and analyzed by OriginPro8 (Origin lab corporation, Northampton, Mass.).

[3] = molecular target: T2, Arabidopsis TGD2, N-terminally truncated TGD2-dTMD-His (from Gly-119) (Arabidopsis thaliana, UniProt Q9LTR2); test: Membrane lipid binding assay, TGD2-dTMD-His; conditions: lipid membranes, FIG. 8A
T2 sequence (Q9LTR2 119-381): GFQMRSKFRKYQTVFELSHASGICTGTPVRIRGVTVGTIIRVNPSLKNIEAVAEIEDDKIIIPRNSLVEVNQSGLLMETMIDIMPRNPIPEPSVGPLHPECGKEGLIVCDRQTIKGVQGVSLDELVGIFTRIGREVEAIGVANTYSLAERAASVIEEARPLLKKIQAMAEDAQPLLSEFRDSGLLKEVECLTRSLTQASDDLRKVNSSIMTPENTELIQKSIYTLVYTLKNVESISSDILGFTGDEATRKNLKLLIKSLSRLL
Description: Commercially available membrane strips prespotted with lipids were purchased. (Echelon Biosciences, Salt Lake City, Utah). Prokaryotic phosphatidylcholine and PA were also purchased (Avanti Polar Lipids). Prokaryotic monogalactolipid, digalactolipid, sulfolipid, and phosphatidylglycerol were purified from Synechocystis PCC6803 by TLC of lipid extracts. Eukaryotic monogalactolipid and digalactolipid was isolated from pea leaves.
Approximately 5 μg of lipids were spotted onto a Hybond-C membrane (Amersham Pharmacia Biosciences). The membranes were first blocked with 3% BSA in TBST (10 mM Tris-HCl, pH 8.0/150 mM NaCl/0.1% Tween 20) for 1 h and incubated in 0.5 μg/ml TGD2 protein solution in the blocking buffer at 4° C. overnight. The blots were washed five times with TBST and soaked in 3% BSA in TBST with a Penta-His mouse monoclonal antibody (Qiagen) at a 1:1,000 dilution at room temperature overnight. The membranes were washed twice with TBST and soaked in 3% BSA in TBST with alkaline phosphatase-conjugated anti-mouse antibody (Jackson ImmunoResearch) at a 1:5,000 dilution for 1 hour at room temperature. After washing with TBST twice, the protein was detected by using the Immun-Star AP detection system (Bio-Rad).

[4] = molecular target: T3, Arabidopsis TGD2, DsRed-TGD2C T9 (residues 221-250, SEQ ID NO:40) (Arabidopsis thaliana, UniProt Q9LTR2); test: Liposome-association assay, TGD2C T9 (221-250); type: binding
T3 sequence (Q9LTR2 221-250): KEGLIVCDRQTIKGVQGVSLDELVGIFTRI
Description: as §1, §2, §3

[5] = system: DsRed protein (Discosoma sp. red fluorescent protein); test: Liposome-association assay, DsRed control; type: binding; conditions: FIG. 3B
Description: as §1, §2, §3

With CCCCCCCC/C=C\CCCCCCCC(=O)OC[C@H](COP(=O)(O)O)OC(=O)CCCCCCC/C=C\CCCCCCCC [PA, phosphatidic acid] the “effect of pH on PtdOH binding” value [1] was “not affected”, the PA binding [2] was “did not seem to affect PA binding” and the binding of lipids [3] was “bound”. For the same compound, the PA binding [4] was “no interaction to PA was detected” and the “binding to PC or PA” value [5] was “does not display binding”.
